Legend:
c-Jun = experiment: Western blot for c-Jun in urine exosomes of paracetamol overdose patients; format: in vivo, human; settings: following paracetamol-induced liver injury in humans, FIG. 7
Experimental: (§1) Six normal male volunteers (aged 23-40, MREC ethics approval number 06/MRE00/67) provided urine samples in sterile 50 ml plastic containers. To each urine sample a protease inhibitor was added (50:1 of 1 mM Leupeptin). […] 3 out of 6 of these patients had elevated serum alanine transaminase (ALT) 24 hours after admission indicating significant liver injury. The samples were centrifuged at 15000×g for 15 minutes at 4° C. to pellet the urinary sediment. The ‘15000×g supernatant’ was then centrifuged at 100 000 rpm for 1 hour at 4° C. to obtain low density urinary exosome pellets. The 100 000 rpm supernatant was decanted and replaced with an additional ‘15 000×g supernatant’ and ultracentrifuged again. The ultracentrifugation step was repeated 4-6 more times to harvest the exosome pellets from 18-24 ml of 15 000×g supernatant. Pellets were resuspended in 50 μl isolation solution (10 mM triethanolamine/250 mM sucrose (pH 7.6)).
(§2) The amount of urine and MP protein was determined using the BCA™ Protein Assay Kit (Pierce, USA) and following the manufacturer's instructions. 20 μg of normal urine exosome samples were loaded per well. Loading amounts for each of the paracetemol overdose samples were normalised for urinary creatinine to account for differences in urine concentration. […]

[1] = Exosomal protein concentration of urine in paracetamol overdose patients (BCA protein assay); format: in vivo, human; settings: 4 hours after paracetamol overdose
Experimental: as §1, §2

[2] = NAC as antidote for APAP overdose; cited from earlier work

| Structure (SMILES) | urinary microparticle concentration of C-Jun protein (c-Jun) | increase in exosomal proteinuria compared to normal ([1]; pooled sample from 3 patients with organ injury) [fold] | increase in exosomal protein compared to normal healthy individuals ([1]; pooled samples from 3 patients without organ injury) | patients with adverse reactions [2] |
| --- | --- | --- | --- | --- |
| CC(=O)Nc1ccc(O)cc1 [paracetamol, N-(4-hydroxyphenyl)ethanamide] | increased | ~37 | about 7 fold | – |
| CC(=O)N[C@@H](CS)C(=O)O [N-acetylcysteine] | – | – | – | around 15% |

— US8110371B2, “Identifying organ damage” (The University Court of the University of Edinburgh, priority 2007, dated 2012)
